Results reported in patent publication US20230002359A1, “PESTICIDALLY ACTIVE FUSED BICYCLIC HETEROAROMATIC COMPOUNDS” (priority 2019, published 2023).
Read-outs that look alike come from different tables or passages of the source.

How the values were obtained:
Assay type in all cases: in vivo
[1] = test system: Diabrotica Balteata (Corn Root Worm); experiment: Example B1: Diabrotica balteata (corn root worm), maize sprouts sprayed, L2 larvae; conditions: 96 h, read-out: control in at least one of the two categories (mortality or growth inhibition)
Procedure, shortened: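 Spray test: maize sprouts on agar, aqueous dilutions of 10′000 ppm DMSO stock; after drying, 6–10 L2 larvae/well. Read-out at 4 d post-infestation: mortality and growth inhibition vs untreated.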

[2] = test system: Euschistus heros (Neotropical Brown Stink Bug); experiment: Example B2: Euschistus heros (neotropical brown stink bug), soybean leaves sprayed, N2 nymphs; conditions: 120 h, read-out: control in at least one of the two categories (mortality or growth inhibition)
Protocol: Soybean leaves on agar in 24-well microtiter plates were sprayed with aqueous test solutions prepared from 10′000 ppm DMSO stock solutions. After drying the leaves were infested with N2 nymphs. The samples were assessed for mortality and growth inhibition in comparison to untreated samples 5 days after infestation.

[3] = test system: Chilo suppressalis (Striped Rice Stemborer); experiment: Example B3: Chilo suppressalis (striped rice stemborer), artificial diet, L2 larvae; conditions: 144 h, read-out: control in at least one of the three categories (mortality, anti-feedant effect, or growth inhibition)
Procedure, shortened: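 Artificial diet in wells was treated with aqueous test solutions diluted from 10'000 ppm DMSO stocks, dried, then infested with 6-8 L2 larvae per well. Mortality, anti-feeding effect and growth inhibition were scored against untreated samples 6 days after infestation; control means any category exceeds the untreated sample.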

[4] = test system: Plutella xylostella (Diamond Back Moth); experiment: Example B4: Plutella xylostella (diamond back moth), artificial diet, eggs, 24-well; conditions: 192 h, read-out: control in at least one of the two categories (mortality or growth inhibition)
Protocol: 24-well microtiter plates with artificial diet were treated with aqueous test solutions prepared from 10′000 ppm DMSO stock solutions by pipetting. After drying, Plutella eggs were pipetted through a plastic stencil onto a gel blotting paper and the plate was closed with it. The samples were assessed for mortality and growth inhibition in comparison to untreated samples 8 days after infestation.

[5] = test system: Myzus persicae (Green Peach Aphid); experiment: Example B6: Myzus persicae (green peach aphid) intrinsic activity, sucrose solution; conditions: 120 h
Procedure, shortened: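 Mortality was read 5 days after infestation. Aphids on pea seedlings fed through a stretched Parafilm membrane on inverted 24-well plates containing sucrose solution mixed with test compound, which was diluted from 10′000 ppm DMSO stock.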

[6] = test system: Spodoptera littoralis (Egyptian Cotton Leaf Worm); experiment: Example B7: Spodoptera littoralis (Egyptian cotton leaf worm), cotton leaf discs sprayed, L1 larvae; conditions: foliar, 72 h, read-out: control in at least one of the three categories (mortality, anti-feedant effect, or growth inhibition)
Procedure, shortened: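 Read-out: mortality, feeding deterrence and growth inhibition, assessed 3 days after infestation relative to untreated samples. Sprayed, dried cotton leaf discs on agar each received five first-instar (L1) larvae; sprays were aqueous solutions prepared from 10′000 ppm DMSO stocks.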

[7] = application rate of 200 ppm, 4 days after infestation, L2 larvae
[8] = application rate of 200 ppm, 5 days after infestation, N2 nymphs
[9] = application rate of 200 ppm, 6 days after infestation, L2 larvae
[10] = application rate of 200 ppm, 8 days after infestation, eggs
[11] = test rate of 12 ppm, 5 days after infestation, intrinsic activity, read-out: mortality
[12] = application rate of 200 ppm, 3 days after infestation, L1 larvae

CC(Nc1ncnc2c(C(F)(F)F)cc(Cl)cc12)c1ncnn1-c1ncccn1 (centres unmarked) [P.40, 6-chloro-N-[1-(2-pyrimidin-2-yl-1,2,4-triazol-3-yl)ethyl]-8-(trifluoromethyl)quinazolin-4-amine]
≥ 80%: percent control (mortality or growth inhibition) at 200 ppm [1, 7] | percent control (mortality or growth inhibition) at 200 ppm [2, 8] | percent control (mortality, anti-feedant effect or growth inhibition) at 200 ppm [3, 9] | percent control (mortality or growth inhibition) at 200 ppm [4, 10] | mortality at 12 ppm [5, 11] | percent control (mortality, anti-feedant effect or growth inhibition) at 200 ppm [6, 12]

C[C@@H](c1ncnn1-c1ncccn1)N(C)c1ncnc2c(C(F)(F)F)cc(C(=O)C3CC3)cc12 [P.82, cyclopropyl-[4-[methyl-[(1S)-1-(2-pyrimidin-2-yl-1,2,4-triazol-3-yl)ethyl]amino]-8-(trifluoromethyl)quinazolin-6-yl]methanone]
≥ 80%: percent control (mortality or growth inhibition) at 200 ppm [1, 7] | percent control (mortality or growth inhibition) at 200 ppm [2, 8] | percent control (mortality, anti-feedant effect or growth inhibition) at 200 ppm [3, 9] | percent control (mortality or growth inhibition) at 200 ppm [4, 10] | mortality at 12 ppm [5, 11]

C=CCN(c1ncnc2c(C(F)(F)F)cc(C(F)(F)F)cc12)C(C)c1ncnn1-c1ccc(C#N)cn1 (centres unmarked) [P.260, 6-[5-[1-[allyl-[6,8-bis(trifluoromethyl)quina-zolin-4-yl]amino]ethyl]-1,2,4-triazol-1-yl]pyridine-3-carbonitrile]
≥ 80%: percent control (mortality or growth inhibition) at 200 ppm [1, 7] | percent control (mortality or growth inhibition) at 200 ppm [2, 8] | percent control (mortality, anti-feedant effect or growth inhibition) at 200 ppm [3, 9] | percent control (mortality or growth inhibition) at 200 ppm [4, 10] | mortality at 12 ppm [5, 11] | percent control (mortality, anti-feedant effect or growth inhibition) at 200 ppm [6, 12]

C[C@H](Nc1ncnc2c(I)cc(C(F)(F)F)cc12)c1ncnn1-c1ccc(C#N)cn1 [P.263, 6-[5-[(1S)-1-[[8-iodo-6-(trifluoromethyl)quinazolin-4-yl]amino]ethyl]-1,2,4-triazol-1-yl]pyridine-3-carbonitrile]
≥ 80%: percent control (mortality or growth inhibition) at 200 ppm [1, 7] | percent control (mortality or growth inhibition) at 200 ppm [2, 8] | percent control (mortality, anti-feedant effect or growth inhibition) at 200 ppm [3, 9] | percent control (mortality or growth inhibition) at 200 ppm [4, 10] | mortality at 12 ppm [5, 11] | percent control (mortality, anti-feedant effect or growth inhibition) at 200 ppm [6, 12]

C[C@@H](c1ncnn1-c1ncccn1)N(C)c1ncnc2c(C(F)(F)F)cc(S(=O)(=O)C(F)(F)F)cc12 [P.262, N-methyl-N-[(1S)-1-(2-pyrimidin-2-yl-1,2,4-triazol-3-yl)ethyl]-8-(trifluoromethyl)-6-(trifluoromethylsulfonyl) quinazolin-4-amine]
≥ 80%: percent control (mortality or growth inhibition) at 200 ppm [1, 7] | percent control (mortality or growth inhibition) at 200 ppm [2, 8] | percent control (mortality, anti-feedant effect or growth inhibition) at 200 ppm [3, 9] | percent control (mortality or growth inhibition) at 200 ppm [4, 10] | mortality at 12 ppm [5, 11] | percent control (mortality, anti-feedant effect or growth inhibition) at 200 ppm [6, 12]

CC(Nc1ncnc2c(C(F)(F)F)cc(OC(F)(F)F)cc12)c1ncnn1-c1ccc(C#N)cn1 (centres unmarked) [P.220, 6-[5-[1-[[6-(trifluoromethoxy)-8-(trifluoromethyl)quinazolin-4-yl]amino]ethyl]-1,2,4-triazol-1-yl]pyridine-3-carbonitrile]
≥ 80%: percent control (mortality or growth inhibition) at 200 ppm [1, 7] | percent control (mortality or growth inhibition) at 200 ppm [2, 8] | percent control (mortality, anti-feedant effect or growth inhibition) at 200 ppm [3, 9] | percent control (mortality or growth inhibition) at 200 ppm [4, 10] | mortality at 12 ppm [5, 11] | percent control (mortality, anti-feedant effect or growth inhibition) at 200 ppm [6, 12]

CC(c1ncnn1-c1ccc(C#N)cn1)N(C(=O)OCc1ccccc1)c1ncnc2c(C(F)(F)F)cc(C(F)(F)F)cc12 (centres unmarked) [P.10, benzyl N-[6,8-bis(trifluoromethyl)quina-zolin-4-yl]-N-[1-[2-(5-cyano-2-pyridyl)-1,2,4-triazol-3-yl]ethyl]carbamate]
≥ 80%: percent control (mortality or growth inhibition) at 200 ppm [1] | percent control (mortality or growth inhibition) at 200 ppm [2] | percent control (mortality, anti-feedant effect or growth inhibition) at 200 ppm [3] | percent control (mortality or growth inhibition) at 200 ppm [4] | mortality at 12 ppm [5] | percent control (mortality, anti-feedant effect or growth inhibition) at 200 ppm [6]

CC(Nc1ncnc2c(Br)cc(C(F)(F)F)cc12)c1ncnn1-c1ncccn1 (centres unmarked) [P.47, 8-bromo-N-[1-(2-pyrimidin-2-yl-1,2,4-triazol-3-yl)ethyl]-6-(trifluoromethyl)quinazolin-4-amine]
≥ 80%: percent control (mortality or growth inhibition) at 200 ppm [1, 7] | percent control (mortality or growth inhibition) at 200 ppm [2, 8] | percent control (mortality, anti-feedant effect or growth inhibition) at 200 ppm [3, 9] | percent control (mortality or growth inhibition) at 200 ppm [4, 10] | percent control (mortality, anti-feedant effect or growth inhibition) at 200 ppm [6, 12]

C[C@@H](c1ncnn1-c1ncccn1)N(C)c1ncnc2c(C(F)(F)F)cc(SC(F)(F)F)cc12 [P.84, N-methyl-N-[(1S)-1-(2-pyrimidin-2-yl-1,2,4-triazol-3-yl)ethyl]-8-(trifluoromethyl)-6-(trifluoromethylsulfanyl) quinazolin-4-amine]
≥ 80%: percent control (mortality or growth inhibition) at 200 ppm [1, 7] | percent control (mortality or growth inhibition) at 200 ppm [2, 8] | percent control (mortality, anti-feedant effect or growth inhibition) at 200 ppm [3, 9] | percent control (mortality or growth inhibition) at 200 ppm [4, 10] | mortality at 12 ppm [5, 11]

CC(c1nccnc1-c1ncccn1)N(C)c1ncnc2c(C(F)(F)F)cc(C(F)(F)F)cc12 (centres unmarked) [P.107, N-methyl-N-[1-(3-pyrimidin-2-ylpyrazin-2-yl)ethyl]-6,8-bis(trifluoromethyl)quina-zolin-4-amine]
≥ 80%: percent control (mortality or growth inhibition) at 200 ppm [1, 7] | percent control (mortality or growth inhibition) at 200 ppm [2, 8] | percent control (mortality, anti-feedant effect or growth inhibition) at 200 ppm [3, 9] | percent control (mortality or growth inhibition) at 200 ppm [4, 10] | percent control (mortality, anti-feedant effect or growth inhibition) at 200 ppm [6, 12]

C[C@H](Nc1ncnc2c(C(F)(F)F)cc(I)cc12)c1ncnn1-c1ncccn1 [P.87, 6-iodo-N-[(1S)-1-(2-pyrimidin-2-yl-1,2,4-triazol-3-yl)ethyl]-8-(trifluoromethyl)quinazolin-4-amine]
≥ 80%: percent control (mortality or growth inhibition) at 200 ppm [1, 7] | percent control (mortality or growth inhibition) at 200 ppm [2, 8] | percent control (mortality, anti-feedant effect or growth inhibition) at 200 ppm [3, 9] | percent control (mortality or growth inhibition) at 200 ppm [4, 10] | mortality at 12 ppm [5, 11]

C#CCN(c1ncnc2c(C(F)(F)F)cc(C(F)(F)F)cc12)C(C)c1ncnn1-c1ccc(C#N)cn1 (centres unmarked) [P.261, 6-[5-[1-[[6,8-bis(trifluoromethyl)quina-zolin-4-yl]-prop-2-ynyl-amino]ethyl]-1,2,4-triazol-1-yl]pyridine-3-carbonitrile]
≥ 80%: percent control (mortality or growth inhibition) at 200 ppm [1, 7] | percent control (mortality or growth inhibition) at 200 ppm [2, 8] | percent control (mortality, anti-feedant effect or growth inhibition) at 200 ppm [3, 9] | percent control (mortality or growth inhibition) at 200 ppm [4, 10] | percent control (mortality, anti-feedant effect or growth inhibition) at 200 ppm [6, 12]

CC(c1ncnn1-c1ncccn1)N(C)c1ncnc2c(Br)cc(C(F)(F)F)cc12 (centres unmarked) [P.71, 8-bromo-N-methyl-N-[1-(2-pyrimidin-2-yl-1,2,4-triazol-3-yl)ethyl]-6-(trifluoromethyl)quinazolin-4-amine]
≥ 80%: percent control (mortality or growth inhibition) at 200 ppm [1, 7] | percent control (mortality or growth inhibition) at 200 ppm [2, 8] | percent control (mortality, anti-feedant effect or growth inhibition) at 200 ppm [3, 9] | percent control (mortality or growth inhibition) at 200 ppm [4, 10] | mortality at 12 ppm [5, 11]
